According to publication PMC11206507, “Unraveling the Impact of Six Pentacyclic Triterpenes Regulating Metabolic Pathways on Lung Carcinoma Cells” (Pharmaceuticals, 2024):

How the values were obtained:
[1] = MTS/PMS cell viability, MRC5; type: cell-based; conditions: human, MRC5 normal lung fibroblast cells
Procedure: The 50% inhibitory concentration (IC50) of some of these triterpenes in A549 NSCLC cells were previously determined by us. A similar procedure was performed to determine the IC50 of the triterpenes in a normal lung fibroblast cell line (MRC5). In brief, the A549 and MRC5 cells were seeded into 96-well plates at a density of 1 × 10^5 cells/mL in supplemented DMEM medium. The cells were treated with specific concentrations (A549: 5, 10, 25, 50, 75, 100, 125,150, 175, 200 μM; MRC5: 5, 10, 25, 50, 75, 100 μM) of the triterpenes and incubated for 24 h. Then, 10 uL of the MTS reagent from the CellTiter 96® Aqueous Non-Radioactive Cell Proliferation Assay (Promega G5421) was added to each well. Then, we incubated the plates at 37 °C and in a 5% CO2 atmosphere for 1 h. After incubation, the absorbance was measured at 492 nm (n = 8) in a microplate reader spectrophotometer (Thermoscientific Multiskan FC). The cell viability was calculated as follows:% Viability = (sample absorbance − sample media absorbance)/(untreated cells’ absorbance − untreated cells’ media absorbance) × 100
The cell viability data were presented by plotting the values with an average of eight measurements for each treatment (mean ± SD) in at least three independent experiments. The IC50 values were calculated with the GraphPad Prism 9 software (Prism 9; GraphPad by Dotmatics, San Diego, CA, USA) using the dose–response curve. The data were normalized by the non-linear fit of the log (drug inhibition) vs. normalized response variable slope to obtain the best fit IC50 and R-squared values.

[2] = test system: A549 cells; experiment: Mitochondrial ROS production assay (DHE, flow cytometry); type: cell-based, human; conditions: A549, IC25, 24 h; for Amount of mROS, on average of the three named triterpenes, compared to the untreated cells: group average
Procedure: (§1) We used flow cytometry to analyze several cellular mechanistic pathways in A549 cells after incubation with the triterpenes. In general, the cells were seeded in a 6-well plate at a density of 1 × 10^6 cells/mL and incubated for 24 h in supplemented DMEM. After 24 h, the A549 cells were treated with the triterpenes, following each manufacturer’s protocol. All of the following experiments were performed in a Muse® Cell Analyzer (EMD Millipore Corporation, Temecula, CA). The instrument was calibrated before each assay using the Muse® System Check Kit (Luminex MCH100101, Luminex Corporation). Each assay was run at least in two independent experiments. For each experiment, all samples were analyzed in triplicate in the instrument and the capillary line was washed after each sample run to avoid artifacts. In addition, to address the issue of cell doublets, we used the Muse® Cell Dispersal Reagent (Luminex Corporation) in all experiments. The concentration of the triterpenes in each assay was selected depending on the cellular concentration necessary to generate the gain signal in the instrument. This means that we attempted to select concentrations avoiding excessive cytotoxicity to accurately determine the respective signal from each assay.
The production of reactive oxygen species (ROS) by mitochondria was determined using the Oxidative Stress Kit (Luminex MCH100111, Luminex Corporation). After the A549 cells were treated with the triterpenes (IC25) for 24 h, the cells were scraped and centrifuged. For ROS, the cell pellet was incubated with dihydroethidium (DHE) dye for 1 h at 37 °C.

[3] = test system: PDL1 gene; experiment: RT-qPCR gene expression of PDL1; type: cell-based, human; conditions: for PDL1 gene expression (in words): A549, IC25 (CisPt 25 μM), 24 h
Procedure: (§2) A549 cells were seeded into 6-well plates at a density of 1 × 10^6 cells/mL in supplemented DMEM. The cells were incubated with the triterpenes (IC25) for 24 h. Total RNA was extracted from the cells using the TRIzol reagent (Invitrogen Corporation, Carlsbad, CA, USA) according to the manufacturer’s instructions. The purity and concentration of RNA were assessed using a NanoDrop spectrophotometer (Thermo Fisher Scientific). cDNA was synthesized using the High-Capacity cDNA Reverse Transcription Kit (Applied Biosystems) according to the manufacturer’s instructions.
(§3) RT-qPCR was performed on a StepOnePlus® Real-Time PCR System (Thermo Fisher Scientific) using TaqMan Gene Expression Assays (Applied Biosystems) for PDL1 (CD274; Assay ID: Hs01125297_m1), ribonucleotide reductase (RR) M1 (Assay ID: Hs01040697_m1), and STAT3 (Assay ID: Hs01047586_g1). Each reaction consisted of 10 ng of cDNA, TaqMan Gene Expression Master Mix (Applied Biosystems), and TaqMan probes. The PCR cycling conditions were as follows: 95 °C for 10 min, followed by 40 cycles of 95 °C for 15 s and 60 °C for 60 s. The relative gene expression levels were calculated using the ΔΔCt method. GAPDH (Assay ID: Hs02758991_g1) was used as the endogenous control for normalization.
(§4) All RT-qPCR experiments were performed at least in triplicate. All data were expressed by plotting values with an average of four measurements for each treatment condition as the mean ± SD and analyzed with the software GraphPad Prism 9. Statistical analysis was performed using one-way analysis of variance (ANOVA) to compare the mean value of each treated type of cells versus the control (untreated cells). The statistical significance defined by the software for p values was **** < 0.0001, *** from 0.001 to 0.0001, ** from 0.001 to 0.01, * from 0.01 to 0.05, and non-significant (ns) ≥ 0.05.

[4] = test system: DNA damage machinery in A549 cells; experiment: DNA damage assay (anti-pH2AX / anti-pATM, flow cytometry); type: cell-based, human; conditions: A549, IC50, 24 h, vs untreated cells
Procedure: as §1
Then, the A549 cells were scraped and centrifuged. The pellet was suspended in the assay buffer from the Luminex MCH200107 kit (Luminex Corporation). […]

[5] = test system: STAT3 gene; experiment: RT-qPCR gene expression of STAT3; type: cell-based, human; conditions: A549, IC25, 24 h
Procedure: as §2, §3, §4

SMILES | IC50 at 24 h [1] [µM] | Amount of mROS, on average of the three named triterpenes, compared to the untreated cells [2] [%] | PDL1 gene expression (in words) [3] | PDL1 downregulation ([3]; summary, NSCLC A549 cells) | Activation of the DNA damage machinery (in words) [4] | STAT3 gene expression (in words) [5] | mROS production (in words) ([2]; vs negative control)
C=C(C)[C@@H]1CC[C@]2(C)CC[C@]3(C)[C@H](CC[C@@H]4[C@@]5(C)CC[C@H](O)C(C)(C)[C@@H]5CC[C@]43C)[C@@H]12 [Lupe, lupeol] | 101 ± 8 | 26.2 |  |  |  |  | 
C=C(C)[C@@H]1CC[C@]2(CO)CC[C@]3(C)[C@H](CC[C@@H]4[C@@]5(C)CC[C@H](O)C(C)(C)[C@@H]5CC[C@]43C)[C@@H]12 [Betu, betulin] | 16 ± 0.5 |  | did not inhibit | - |  |  | 
C[C@H]1[C@H](C)CC[C@]2(C(=O)O)CC[C@]3(C)C(=CC[C@@H]4[C@@]5(C)CC[C@H](O)C(C)(C)[C@@H]5CC[C@]43C)[C@H]12 [UrA, ursolic acid] | 13 ± 1 |  |  |  | caused the activation of the DNA damage machinery |  | 
C=C(C)[C@@H]1CC[C@]2(C(=O)O)CC[C@]3(C)[C@H](CC[C@@H]4[C@@]5(C)CC[C@H](O)C(C)(C)[C@@H]5CC[C@]43C)[C@@H]12 [BeA, betulinic acid] | 19 ± 0.4 | 26.2 | superior in suppressing both genes |  |  | superior in suppressing both genes | largest level of mROS
